From patent US20190195897A1, “GLYCOSYLATED METABOLITES” (UNIVERSITEIT LEIDEN, priority 2015, published 2019)

Tests used:
[1] = tested on: type 1 GD mice; assay: Treatment of mice with induced Gaucher disease with GCS inhibitor; plasma GlcCer and GlcChol; format: in vivo; conditions: treated with GCS inhibitor
Source text: FIG. 2E: Plasma GlcChol (nM) in normal, type 1 GD mice untreated and treated with GENZ 112638.
As shown in FIG. 2A and FIG. 2B, the GlcChol concentration was markedly lower in tissues of GBA2-deficient animals, especially in thymus. In contrast, in the GBA-deficient LIMP-2 KO mice no reduction in GlcChol, but rather a small increase in levels was observed (FIG. 2A, 2B). An increase in GlcChol was also observed in liver of mice with an induced GBA deficiency in the white blood cell lineage (FIG. 2C). Efficient correction of GBA deficiency by gene therapy led to a concomitant reduction of GlcChol (FIG. 2C).
The following mice were used for investigation: GD1 mice in which GBA-deficiency was induced (31, 32); mice with spontaneous Niemann Pick Type C (33) and Npc1−/− mice (34); LIMP2−/− mice (35), and GBA2 −/− mice (22). Animals were sacrificed and tissue were immediately frozen and stored at −80° C.
For quantitative analysis of GlcChol in samples of plasma, we developed a LC-MS/MS method using the MRM mode of the transitions mentioned above. Firstly, GlcChol was extracted from plasma from a healthy individual according the method of Bligh and Dyer (28) with a few modifications. […]

[2] = tested on: RAW 267 cells; assay: GlcChol in RAW 267 cells exposed to U18666A; format: cell-based; conditions: for increase of GlcChol in U18666A exposed cells: RAW 267 cells with U18666A, added agent present
Method: FIG. 5C: GlcChol (pmol/mg protein) in RAW 267 cells incubated with indicated concentration U18666A for 1 day in absence and presence of conduri.tol B-epoxide (CBE) inhibiting GBA.
FIG. 5D: GlcChol (pmol/mg protein) in RAW 267 cells incubated with 10 uM U18666A for 1 day and in subsequent absence and presence of 1 mM β-methylcyclodextrin (β-mCD) reducing intralysosomal cholesterol.

[3] = tested on: COS7 cells; assay: GlcChol in cultured COS7 cells incubated with inhibitors of GBA2 and GBA; format: cell-based; conditions: for increased cellular GlcChol level in cells with overexpressed GCS: COS7 cells with overexpressed GCS, 2 days with inhibitor
Method: FIG. 4A: GlcChol (nmol/g protein) in COS cells without overexpression of enzymes (control), overexpressed GBA2, GCS and both (GBA2+GCS). Cells were incubated for 2 days with indicated inhibitors of GBA2 (AMP-DNM) and GBA (CBE).
The GlcChol content of cultured COS7 cells and factors influencing this was determined. First the impact of overexpressed GBA2 and GCS was studied.
COS-7 cells were cultured in Iscove's modified Dulbecco's medium (Life Technologies, Carlsbad, Calif., USA) supplemented with 5% fetal bovine serum (FBS; Bodinco, Alkmaar, The Netherlands) and in the presence of penicillin/streptomycin Liffe Technologies, Carlsbad, Calif., USA under 5% CO2 at 37° C. […] After 72 h, the medium was removed, cells were washed trice with ice-cold PBS and harvested by scraping in 25 mM potassium-phosphate buffer, pH 6.5.
COS-7 cells overexpressing GBA2 and/or GCS were homogenized by sonication on ice. Prior to extraction, 2 pmol of ^13C-labelled GlcChol in methanol (used as an internal standard) was added to 180 μL of homogenate. Next, lipids were extracted according to the method of Bligh and Dyer by addition of methanol, chloroform and water (1:1:0.9, v/v/v) and the lower phase was taken to dryness under a stream of nitrogen. Isolated Is lipids were purified by water/butanol extraction (1:1, v/v) and 8-GlcChol was analyzed by LC-MS as described before.

[4] = tested on: type 1 GD patients; assay: Plasma GlcChol in treated type 1 GD patients; format: in vivo, human; conditions: plasma specimens of type 1 GD patients
Method: FIG. 6C: Reduction in plasma GlcChol following Eliglustat treatment.
GlcChol levels in plasma of untreated symptomatic type 1 GD patients was determined as well as in NPC patients, carriers and healthy controls. […] The abnormalities are more pronounced when plasma GlcChol is related to Chol (FIG. 6B).
For quantitative analysis of GlcChol in samples of plasma, we developed a LC-MS/MS method using the MRM mode of the transitions mentioned above. Firstly, GlcChol was extracted from plasma from a healthy individual according the method of Bligh and Dyer (28) with a few modifications. 20 μL of plasma was pipetted in an Eppendorf tube (2 mL) and 20 μL of an internal standard solution, containing 0.1 pmol/μL of ^13C6-β-GlcChol in methanol, was added, followed by addition of 280 μL methanol and 150 μL of chloroform. After brief mixing, the sample was left at room temperature for 30 min, mixed occasionally and centrifuged for 10 min at 15700×g to spin down precipitated protein. The supernatant was transferred to an Eppendorf tube and 150 μL chloroform and 250 μL water were added to induce separation of phases. After centrifugation (5 min at 15700×g) the lower, hydrophobic phase was transferred to a clean Eppendorf tube and the upper phase was washed. by addition of 300 μL of chloroform. Lower phases were pooled and taken to dryness at 35° C. under a nitrogen stream. […]

## CCCCCCCC(=O)N[C@H](CN1CCCC1)[C@H](O)c1ccc2c(c1)OCCO2 [GENZ 112638]
[1]
  elevated plasma GlcChol: minor, not statistically significant, reduction
  plasma GlcCer: partial reduction

## β-methylcyclodextrin [B-methyl-cyclodextrin]
[2]
  increase of GlcChol in U18666A exposed cells: prevented

## OC[C@@H]1[C@@H](O)[C@H](O)[C@@H](O)CN1CCCCCOCC12CC3CC(CC(C3)C1)C2 [AMP-DNM, N-(5-adamantane-1-yl-methoxy-pentyl)-deoxynojirimycin]
[3]
  increased cellular GlcChol level in cells with overexpressed GCS: the elevation in GlcChol was prevented
[3]; COS7 cells, low nanomolar inhibitor, 2 days
  cellular GlcChol: reduced cellular GlcChol

## CCCCN1C[C@H](O)[C@@H](O)[C@H](O)[C@H]1CO [Zavesca]
[4]
  plasma GlcChol following treatment: not

## O[C@H]1[C@H](O)[C@@H](O)[C@@H]2O[C@@H]2[C@@H]1O (racemic) [CBE, Conduritol B epoxide]
[3]
  increased cellular GlcChol level in cells with overexpressed GCS: did hardly diminish
[2]
  increase of GlcChol in U18666A exposed cells: prevented completely

## CCN(CC)CCO[C@H]1CC[C@@]2(C)C(=CC[C@@H]3[C@@H]2CC[C@]2(C)C(=O)CC[C@@H]32)C1 [U18666A]
[2]; RAW 267 cells, 1 day
  GlcChol in cells on induction of lysosomal cholesterol accumulation: rapid increase

## CCCCCCCC(=O)N[C@H](CN1CCCC1)[C@H](O)c1ccc2c(c1)OCCO2 [Eliglustat]
[4]
  plasma GlcChol following treatment: prominent reduction
